Experimental data from patent US8481540B2, “Inhibitors of bruton's tyrosine kinase” (Hoffmann-La Roche Inc., priority 2010, dated 2013).

Experiments:
B cells in human blood = test: Inhibition of B cell activation in whole blood measured by CD69 expression; assay type: cell-based; settings: CD69-positive, CD20-positive cells after anti-IgM stimulation, human whole blood, 20 hours, read-out: Human Whole Blood
Method in brief: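 Heparinised human whole blood was preincubated with compound (nine-point, three-fold dilutions) for 30 min at 37 °C. It was then stimulated with 50 μg/ml goat F(ab′)2 anti-human IgM for 20 hours. CD20/CD69 staining, red-cell lysis and flow cytometry gave percent CD69-positive cells, from which IC50 values were calculated.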

| IC50 (B cells in human blood) [nM] | melting point [°C] | Compound |
| --- | --- | --- |
| 21 | 140 to 145 | CN(C)CC(C)(C)Oc1ccc(Nc2cc(-c3cccc(-n4ncc5cc(C(C)(C)C)cc(F)c5c4=O)c3CO)nn(C)c2=O)nn1 [I-39, 6-tert-Butyl-2-(3-{5-[6-(2-dimethylamino-1,1-dimethyl-ethoxy)-pyridazin-3-ylamino]-1-methyl-6-oxo-1,6-dihydro-pyridazin-3-yl}-2-hydroxymethyl-phenyl)-8-fluoro-2H-phthalazin-1-one] |
| 44 | 260 to 265 | CN1CCC(c2ccc(Nc3cc(-c4cccc(-n5ncc6cc(C(C)(C)C)cc(F)c6c5=O)c4CO)nn(C)c3=O)nn2)CC1 [I-40, 6-tert-Butyl-8-fluoro-2-(2-hydroxymethyl-3-{1-methyl-5-[6-(1-methyl-piperidin-4-yl)-pyridazin-3-ylamino]-6-oxo-1,6-dihydro-pyridazin-3-yl}-phenyl)-2H-phthalazin-1-one] |
| 47 | 108 to 110 | COCCNCc1ccc(Nc2cc(-c3cccc(-n4ncc5cc(C(C)(C)C)cc(F)c5c4=O)c3CO)nn(C)c2=O)nc1 [I-42, 6-tert-Butyl-8-fluoro-2-[2-hydroxymethyl-3-(5-{5-[(2-methoxy-ethylamino)-methyl]-pyridin-2-ylamino}-1-methyl-6-oxo-1,6-dihydro-pyridazin-3-yl)-phenyl]-2H-phthalazin-1-one] |
| 117 | 165 to 170 | Cn1nc(-c2cccc(-n3ncc4cc(C(C)(C)C)cc(F)c4c3=O)c2CO)cc(Nc2ccn(CC(C)(C)O)n2)c1=O [I-70, 6-tert-Butyl-8-fluoro-2-(2-hydroxymethyl-3-{5-[1-(2-hydroxy-2-methyl-propyl)-1H-pyrazol-3-ylamino]-1-methyl-6-oxo-1,6-dihydro-pyridazin-3-yl}-phenyl)-2H-phthalazin-1-one] |

Second part, the compound before the results:

| Compound | IC50 (B cells in human blood) [nM] | melting point [°C] |
| --- | --- | --- |
| CN1C[C@@H]2C[C@H]1CN2Cc1ccc(Nc2cc(-c3cccc(-n4ncc5cc(C(C)(C)C)cc(F)c5c4=O)c3CO)nn(C)c2=O)nc1 [I-43, 6-tert-Butyl-8-fluoro-2-(2-hydroxymethyl-3-{1-methyl-5-[5-((1S,4S)-5-methyl-2,5-diaza-bicyclo[2.2.1]hept-2-ylmethyl)-pyridin-2-ylamino]-6-oxo-1,6-dihydro-pyridazin-3-yl}-phenyl)-2H-phthalazin-1-one] | 41 | 183 to 186 |
| Cn1nc(Nc2cc(-c3cccc(-n4ncc5cc(C(C)(C)C)cc(F)c5c4=O)c3CO)nn(C)c2=O)cc1CN1CCC1 [I-58] | 2 | 214 to 217 |
| CN1CCn2nc(Nc3cc(-c4cccc(-n5ncc6cc(C(C)(C)C)cc(F)c6c5=O)c4CO)nn(C)c3=O)cc2C1 [I-59] | 5 | 188 to 193 |
| Cn1nc(-c2cccc(-n3ncc4cc(C(C)(C)C)cc(F)c4c3=O)c2CO)cc(Nc2cc3n(n2)CCN(C2COC2)C3)c1=O [I-60] | 4 | 180 to 185 |
| Cn1nc(-c2cccc(-n3ncc4cc(C(C)(C)C)cc(F)c4c3=O)c2CO)cc(Nc2ccn(C[C@@H](O)CO)n2)c1=O [I-68, 6-tert-Butyl-2-(3-{5-[1-((R)-2,3-dihydroxy-propyl)-1H-pyrazol-3-ylamino]-1-methyl-6-oxo-1,6-dihydro-pyridazin-3-yl}-2-hydroxymethyl-phenyl)-8-fluoro-2H-phthalazin-1-one] | 61 | 245 to 250 |
| CCN1CCN(c2ccc(Nc3cc(-c4cccc(-n5ncc6cc(C(C)(C)C)cc(F)c6c5=O)c4CO)nn(C)c3=O)nc2)CC1 [I-69, 6-tert-Butyl-2-(3-{5-[5-(4-ethyl-piperazin-1-yl)-pyridin-2-ylamino]-1-methyl-6-oxo-1,6-dihydro-pyridazin-3-yl}-2-hydroxymethyl-phenyl)-8-fluoro-2H-phthalazin-1-one] | 18 | 245 to 247 |
| Cn1nc(-c2cccc(-n3ncc4cc(C(C)(C)C)cc(F)c4c3=O)c2CO)cc(Nc2ccc(CN3C[C@@H]4C[C@H]3CN4)cn2)c1=O [I-84, 6-tert-Butyl-2-[3-(5-{5-[(1S,4S)-1-(2,5-diaza-bicyclo[2.2.1]hept-2-yl)methyl]-pyridin-2-ylamino}-1-methyl-6-oxo-1,6-dihydro-pyridazin-3-yl)-2-hydroxymethyl-phenyl]-8-fluoro-2H-phthalazin-1-one] | 242 | > 250 |
